Measurements reported in US11478489B2, “Selective accretion of cytoprotectant in radiation-sensitive tissues and uses thereof” (WILLIAM MARSH RICE UNIVERSITY, priority 2017, dated 2022).
Read-outs that look alike come from different tables or passages of the source.

What was measured:
[1] = Methylene blue gut assay (GI transit time); format: in vivo, C57BL/6 mice
Procedure: In order to determine the rate at which oral solutions such as WR-2721 traverse the digestive tract of 8-week old C57BL/6 mice following oral gavage, a 1% (w/v) solution of methylene blue in PBS was gavaged in a total volume of 0.1 ml. Mice were then euthanized at 5, 10, 15, 25 and 30 min after the dye administration and the progress of the methylene blue stain through the intestines was examined. Mice were anesthetized with isoflurane 8 min prior to euthanasia following the same procedure used prior to irradiation (8 min at 3% isoflurane and oxygen flow rate of 2 L/min) to account for any potential changes it might have on GI transit time. Methylene blue dye progress was examined in situ for comparison with the location of our standard radiation field and then the intestine was excised so that distance traveled could be determined.

[2] = given intravenously; cited from earlier work
[3] = system: duodenal and jejunal crypts; assay: Microcolony assay (Withers-Elkind), surviving crypts after 12 Gy whole body irradiation; format: in vivo, C3Hf/KamLaw mice; settings: jejunum, oral, 30 min prior to 12 Gy WBI; no further benefit at 1000 mg/kg
Procedure: (§1) WR-2721 Trihydrate (Toronto Research Chemicals Inc; North York, Ontario, Canada) was diluted in PBS (with 0.2 conversion factor to adjust for trihydrate) and was administered by IP injection at 25 or 250 or 500 mg/kg or by oral gavage at doses […] 150 to 1000 mg/kg in a volume of 0.1 ml.
For the microcolony assay, a single dose of 12 Gy whole body irradiation (WBI) was administered 15 min or 30 min after WR-2721 treatment using a Pantak 300 x-ray unit (Pantak; East Haven, Conn.), with 300 kVp X-rays at a dose rate of 1.84 Gy/min. Un-anesthetized mice were loosely restrained in a well ventilated 15×15×2 cm Lucite box during WBI.
Viable jejunal crypts were quantified following a single dose of 12 Gy WBI+/− a single oral dose of WR-2721 given at 15 min or 30 min prior to radiation using the microcolony assay. Mice were euthanized 3 days and 14 hours after receiving WBI, and segments of jejunum and duodenum were resected and fixed in 10% neutral buffered formalin. Tissue was then embedded in paraffin, and four transverse slices of jejunum and duodenum were stained with hematoxylin and eosin per mouse. The number of regenerating crypts per transverse section was scored microscopically and averaged over the 4 sections per animal for each tissue type. All slides were scored by a single observer blinded to treatment group. […]

[4] = Tolerability: body weight and food consumption as a model of nausea; format: in vivo, C57BL/6JLaw mice
Procedure: as §1
Severe nausea is a common and worrisome side effect of systemic WR-2721, and the concern that oral administration of the drug might exacerbate this side effect was examined. […] Thus, body weight and food consumption was closely monitored as a model of nausea in mice. Based on the results of the microcolony assay (FIG. 1), 500 mg/kg were used as the dose for toxicity testing. Mice were treated daily for 5 consecutive days with vehicle or WR-2721 administered IP or Per os (PO), and body weight and food consumption were monitored daily (FIGS. 2A and 2B, respectively). There was only one vehicle control group that was subjected to both gavage and intraperitoneal injections to more stringently control for the stress of drug administration from either IP or PO route. Despite this intensive intervention, the vehicle control animals maintained their initial bodyweight and food consumption throughout the study (FIGS. 2A and 2B).

[5] = system: C57BL/6 mice given lethal fractionated radiation; assay: Survival study after fractionated SBRT to the upper abdomen; format: in vivo, C57BL/6JLaw mice; settings: oral 500 mg/kg 25 min prior to each of 5 daily fractions of 12.5 Gy, 10 mm field; all vehicle controls died in fewer than 10 days
Procedure: (§2) For survival studies, SBRT was given for 5 consecutive days 25 min after administration of vehicle or WR-2721 using the XRAD 225Cx small animal irradiator (Precision X-Ray; North Branford, Conn.) fitted with a conformal collimator to produce a circular 10 mm diameter radiation field. Mice were anesthetized with isoflurane gas for CT imaging and irradiation. Each mouse was imaged using the XRAD 225Cx cone beam CT prior to irradiation in order to align the radiation field so that the cranial edge of the field was located 5 mm below the diaphragm at the isocenter of the mouse. This field exposed the pancreas, duodenum, jejunum and liver to radiation. Radiation was administered anterior-posterior-posterio-anterior (AP-PA).
(§3) Mice were treated with WR-2721 or vehicle by intraperitoneal (IP) injection or oral gavage followed by SBRT and monitored on a daily basis. […] Time to euthanasia and percent survival were assessed.
It was hypothesized that the maximal benefit of radioprotection would likely occur between 12 and 13 Gy at 12.5 Gy×5 fractions (62.5 Gy; D2Eq=117.2 Gy). […] Remarkably, 100% of mice that received oral WR-2721 lived beyond 30 days, while all vehicle controls died in fewer than 10 days FIG. 3D, log rank p=0.0035).

[6] = LC/MS-MS analysis of WR-1065 plasma and tissue concentrations, C57BL/6 mice; settings: WR-2721 500 mg/kg oral, 25 min
Procedure: Mice were treated with either 500 mg/kg of WR-2721 by oral gavage, or 250 mg/kg by IP injection. After 17 min had elapsed, the mice were anesthetized with isoflurane gas (3% isoflurane, oxygen flow rate of 2 L/min). After 8 min of anesthesia, whole blood and tissues were collected. The total amount of time between treatment and tissue collection was 25 min.
While under isoflurane anesthesia, the whole blood sample was collected via cardiac puncture and was immediately transferred to a BD Microtainer® blood collection tube containing K2-EDTA (Becton Dickinson; Franklin Lakes, N.J.). The K2-EDTA whole blood was then processed to plasma by centrifugation at 3,000 g for 4 min. After processing, a volume of the plasma supernatant (typically 200 μL) was removed and immediately transferred to a fresh 1.4 mL Matrix polypropylene (PP) tube (Thermo Fisher Scientific; Waltham, Mass.) containing a 50 μL aliquot of 10% trichloroacetic acid (TCA). After vortexing, the TCA-treated plasma samples were stored on ice for transport from the vivarium to the laboratory for further processing. The TCA-treated plasma samples were then centrifuged at 17,000 g for 5 min, and the supernatant was transferred to a fresh 1.4 mL Matrix tube, and the samples were either extracted and analyzed immediately or capped for −80° C. storage until analysis. […]

[7] = system: KPC mice with spontaneous pancreatic cancer; assay: Survival of tumor-bearing KPC mice after SBRT; format: in vivo, Kras LSL/+; Trp53 FL/+; Ptf1a Cre/+ (KPC) mice; settings: SBRT 12.5 Gy x 5 + oral WR-2721 25 min prior to each fraction; VEH and SBRT+VEH 15 days
Procedure: as §2, §3
Further confirmation is illustrated in FIG. 6. KPC Mice were enrolled onto the study shortly after diagnosis and were treated to vehicle alone, SBRT with vehicle or SBRT with oral WR-2721. The SBRT field was 10 mm given AP/PA to the tumor and the dose was 12.5 Gy per day for 5 consecutive days for a total dose of 62.5 Gy (EQD2=117.2 Gy; α/β10=140.6). The tumors were identified by micro CT and ultrasound on a daily basis without fiducials. […]

[8] = mouse, in vivo, 25 min
Procedure: Next, the specificity of WR-1065 enrichment in intestines was determined in a genetically engineered mouse model. Kras^LSL/+; Trp53^FL/+; Ptfla^Cre/+ (KPC) mice that develop spontaneous pancreatic cancer were bred, and then backcrossed to a C57BL/6 background over 10 generations to eliminate the confounding issue of genetic variance from […] mice. These autochthonous tumors are thought to recapitulate the desmoplasia observed in human tumors that may make these tumors more aggressive. To be an effective an effective clinical radioprotectant, WR-1065 should not accumulate in tumors. Thus, plasma, liver, duodenum, jejunum and pancreatic tumors were collected 25 min after oral administration of 500 mg/kg (HED=41 mg/kg), or IP administration of 250 mg/kg WR-2721 (HED=20 mg/kg) to determine the concentrations of the WR-1065 (see schema in FIG. 4D).

[9] = oral 500 mg/kg daily for 5 consecutive days

In the case of CN(C)c1ccc2nc3ccc(=[N+](C)C)cc-3sc2c1 [Methylene blue, methylene blue], the “time at which dye was in the jejunum” value ([1]; C57BL/6, mouse, in vivo, po) is reported as 15 to 30 min, the “time to reach the duodenum” value ([1]; C57BL/6, mouse, in vivo, po) is reported as at most 10 min and the “dye front within 30 min” value ([1]; oral gavage, 1% (w/v) in PBS, 0.1 ml) is reported as “had not reached the cecum or large intestine”.

For NCCCNCCSP(=O)(O)O [WR-2721, S-2-(3-aminopropylamino)ethyl dihydrogen phosphorothioate], the side effects [2] is given as “severe nausea and hypotension”, the “dose at which radiation protection was maximized” value [3] is given as 500 mg/kg and the “day by which euthanasia was required” value ([4]; intraperitoneal 500 mg/kg daily) is given as at most 4 days. For the same compound, the “body weight and food consumption” value ([4]; intraperitoneal 500 mg/kg daily, 5 consecutive days planned) was “dramatic decrease in food consumption and body weight”, the “body weight and food consumption” value [4, 9] was “modest initial decrease in body weight and food consumption” and the “time to complete recovery of body weight after stopping treatment” value [4, 9] was at most 2 days. For the same compound, the “mice that lived beyond 30 days” value [5] was 100%, the “enhancement of WR-1065 within duodenum and jejunum compared to liver” value [6] was “six- to twelve-fold” and the median survival [7] was 40 days. For the same compound, the “WR-1065 concentration in duodenum” value ([8]; ip, 250 mg/kg) was 236.2±8.6 pmol WR-1065/mg tissue, the “WR-1065 concentration in jejunum” value ([8]; ip, 250 mg/kg) was 275.5±5.0 pmol WR-1065/mg tissue and the “WR-1065 concentration in liver” value ([8]; ip, 250 mg/kg) was 420±69.8 pmol WR-1065/mg tissue. For the same compound, the “WR-1065 concentration in pancreatic tumors” value ([8]; ip, 250 mg/kg) was 248±30.2 pmol WR-1065/mg tissue, the “WR-1065 concentration in duodenum” value ([8]; po, 500 mg/kg) was 200.6±23.3 pmol WR-1065/mg tissue and the “WR-1065 concentration in jejunum” value ([8]; po, 500 mg/kg) was 757.7±26.8 pmol WR-1065/mg tissue. For the same compound, the “WR-1065 concentration in liver” value ([8]; po, 500 mg/kg) was 59.9±26.8 pmol WR-1065/mg tissue, the “WR-1065 concentration in tumor” value ([8]; po, 500 mg/kg) was 24.5±1.9 pmol WR-1065/mg tissue and the “enrichment of the drug in the intestines compared to tumor” value ([8]; po, 500 mg/kg) was 10-40 fold.
